Test results from patent EP2111861A1, “Compositions of phosphodiesterase type IV inhibitors” (Ranbaxy Laboratories Limited, priority 2008, dated 2009).

Experiments:
[1] = system: TNF-α release from human PBMCs; assay: Cell based Assay for TNF-α release, PDE IV inhibitor in combination with p38 MAP Kinase inhibitors; conditions: inhibiting TNF-α release from human PBMCs, LPS stimulated, compound alone
Procedure: Blood was collected in heparin or EDTA vacutainers from healthy human volunteers and Peripheral Blood Mononuclear Cells isolated using Ficoll Hypaque gradient. The cells were resuspended in serum free RPMI 1640 medium at a concentration of 2 million cells/ml.). 1 ml of this cell suspension was co-incubated with 20 µl of compound, alone or in combination, for 10 min in a flat bottom 96 well microtiter plate. Compounds were dissolved in DMSO initially and diluted in medium for a final concentration of 0.2 % DMSO. LPS (1 µg/ml, final concentration) was then added at a volume of 10 µl per well. After 30 min, 20 µl of fetal calf serum (final concentration of 10 %) was added to each well. Cultures were incubated overnight at 37 °C in an atmosphere of 5 % CO2 and 95 % air. Supernatant were then removed and tested by ELISA for TNF-α release using a commercial kit (e.g. BD Biosciences). The level of TNF-α in treated wells was compared with the vehicle treated controls and inhibitory potency of compound was expressed as IC50 values calculated from the percent inhibition values by using Graph pad prism. Percent inhibition = 100-(Percent TNF-α drug treated)/(Percent TNF-α in vehicle treated) × 100 [formula]

[2] = system: TNF-α release; assay: Cell based Assay for TNF-α release, PDE IV inhibitor in combination with corticosteroids; conditions: Compound No. 266 in combination with corticosteroid (not named), human PBMC
Procedure: Blood was collected in heparin or EDTA vacutainers from healthy human volunteers and Peripheral Blood Mononuclear Cells isolated using Ficoll Hypaque gradient. The cells were resuspended in serum free RPMI 1640 medium at a concentration of 2 million cells/ml). 1 ml of this cell suspension was co-incubated with 20 µl of compound, alone or in combination (PDE IV inhibitor and corticosteroid), for 10 min in a flat bottom 96 well microtiter plate The aforesaid compounds were dissolved in DMSO initially and diluted in medium for a final concentration of 0.2 % DMSO. LPS ([…], final concentration) was then added at a volume of 10 µl per well. After 30 min, 20 µl of fetal calf serum (final concentration of 10 %) was added to each well. Cultures were incubated overnight at 37 °C in an atmosphere of 5 % CO2 and 95 % air. Supernatant was then removed and tested by ELISA for TNF-α release using a commercial kit (e.g. BD Biosciences). The level of TNF-α in treated wells was compared with the vehicle treated controls and inhibitory potency of compound was expressed as IC50 values calculated by from percent inhibition values using Graph pad prism. […] Percent inhibition = 100-(Percent TNF-α drug treated)/(Percent TNF-α in vehicle treated) × 100 [formula]

[3] = system: LPS induced rat neutrophilia; assay: LPS induced rat neutrophilia model, PDE IV inhibitor in combination with corticosteroids; assay type: in vivo; conditions: Compound No. 266 in combination with corticosteroid (not named), intratracheal, neutrophil count in BAL
Procedure: PDE-4 inhibitor and corticosteroids were instilled intratracheally under anesthesia at different doses, either alone or in combination. LPS challenge: One hour after drug instillation, (LPS 20 µg/200 µl of PBS) was instilled intratracheally. One group of vehicle treated rats were instilled with 200 µl of phosphate buffered saline (PBS) and served as negative control. Bronchoalveolar lavage (BAL): Two hours after LPS challenge, bronchoalveolar lavage was performed; the animals were sacrificed using thiopentone sodium (150 mg/kg/i.p.). Trachea was cannulated and BAL was performed using Hank's Buffer salt solution (HBSS) (5 ml x 10 times). The bronchoalveolar lavage fluid was centrifuged at 800 g for 5 min, at 4°C and the pellet was resuspended in 1 ml HBSS. Total leukocyte count was performed in the resuspended sample by using hemocytometer. A cytocentrifuge preparation was made using the resuspended bronchoalveolar lavage fluid on a glass slide, stained with Leishmann's stain and then differential leukocyte counts was performed for computation of neutrophil. Statistical significance of each parameter in different treatment groups was determined with respective to vehicle control group using one-way analysis of variance followed by Dunnett's 't' test for multiple comparison. A p level of ≤ 0.05 was considered to be statistically significant.

[4] = system: LPS induced airway hyperreactivity; assay: LPS induced airway hyperreactivity (PC100, Penh), PDE-IV inhibitor in combination with muscarinic receptor antagonist; assay type: in vivo, Wistar rats; conditions: intratracheal
Procedure: MRA (1ng/kg to 1mg/kg) and PDE-IV inhibitor (1ng/kg to 1mg/kg) were instilled intratracheally under anesthesia either alone or in combination.
Wistar rats weighing 200±20gm were used in the study. Rats had free access to food and water. On the day of experiment, animals were exposed to lipopolysaccharide (LPS, 100µg/ml) for 40 min. One group of vehicle treated rats was exposed to phosphate buffered saline (PBS) for 40 min. four hours after LPS/PBS exposure, animals were placed inside a whole body plethysmograph (Buxco Electronics, USA) and exposed to PBS or increasing concentration of acetylcholine (1, 6, 12, 24, 48 and 96 mg/ml) aerosol until Penh values (index of airway resistance) of rats attained 2 times the value (PC-100) seen with PBS alone. The respiratory parameters were recorded online using Biosystem XA software, (Buxco Electronics, USA). Penh, at any chosen dose of acetylcholine was expressed as percent of PBS response and using a nonlinear regression analysis PC100 (2 folds of PBS value) values were computed. Percent inhibition was computed using the following formula. % Inhibition = (PC100_LPS -PC100_TEST)/(PC100_LPS -PC100_PBS) × 100 [formula] Where, PC100LPS = PC100 in vehicle treated and LPS challenged group PC100TEST = PC100 in group treated with a given dose of test compound PC100PBS = PC100 in vehicle treated group challenged with PBS

[5] = Compound No. 266 in combination with Tiotropium (MRA), PC100

Q: For `COc1cc(C2=NO[C@]3(CCOC3)C2)ccc1OC(F)F` (single isomer, unassigned) [Compound No. 266, (5S or 5R)-3-[4-(Difluoromethoxy)-3-methoxyphenyl]-1,7-dioxa-2-azaspiro[4.4]non-2-ene], which IC50 [1] is on record?
A: 76 nM

Q: What about the “Combination Index” value [2] of the same compound?
A: 0.21

Q: And the synergy with corticosteroids [2]?
A: synergy

Q: What about the “Combination Index” value [3] of the same compound?
A: 0.58

Q: And the synergy with corticosteroids [3]?
A: synergy

Q: And the “effect when administered alone” value ([4]; 10 µg/kg)?
A: ineffective

Q: And the Combination Index [4, 5]?
A: 0.26

Q: And the “synergy with Tiotropium (MRA)” value [4, 5]?
A: synergy

Q: For `Cc1ccccc1-c1cc2cnc(NC3CCN(S(C)(=O)=O)CC3)nc2n([C@H]2CCOC2)c1=O` [Compound No. 44a, 6-(2-Methylphenyl)-2-{[1-(methylsulfonyl)piperidin-4-yl]amino}-8-[(3S)-tetrahydrofuran-3-yl]pyrido[2,3-d]pyrimidin-7(8H)-one], which IC50 ([1]; PBMC) is on record?
A: 3 nM

Q: How did the IC50 ([1]; PBMC) turn out when `Cc1ccccc1-c1cc2cnc(NC3CCN(S(C)(=O)=O)CC3)nc2n([C@@H]2CCOC2)c1=O` [Compound No. 46a, 6-(2-Methylphenyl)-2-{[1-(methylsulfonyl)piperidin-4-yl]amino}-8-[(3R)-tetrahydrofuran-3-yl]pyrido[2,3-d]pyrimidin-7(8H)-one] was run?
A: 2 nM

Q: Which IC50 ([1]; PBMC) does the source give for `Cc1ccccc1-c1cc2cnc(NC3CCN(C(=O)NC(C)C)CC3)nc2n([C@@H]2CCOC2)c1=O` [Compound No. 47a, N-Isopropyl-4-({6-(2-methylphenyl)-7-oxo-8-[(3R)-tetrahydrofuran-3-yl]-7,8-dihydropyrido[2,3-d]pyrimidin-2-yl}amino)piperidine-1-carboxamide] here?
A: 22 nM

Q: How did the “effect when administered alone” value ([4]; 10 ng/kg) turn out when `Cc1n(CCCOC(=O)[C@](O)(c2ccccc2)[C@@H]2CCC(F)(F)C2)cc[n+]1Cc1ccccc1.[Br-]` [Compound No. 104aa, 3-Benzyl-1-[3-({(2R)-2-[(1R)-3,3-difluorocyclopentyl]-2-hydroxy-2-phenylacetyl}oxy)propyl]-2-methyl-1H-imidazol-3-ium bromide] was run?
A: not effective

Q: `O=c1ncn2nc(Sc3ccc(F)cc3F)ccc2c1-c1c(Cl)cccc1Cl` [Vx-745, reference compound] was tested. Which IC50 ([1]; PBMC) did it give?
A: 14 nM
